For data set [1] the following is noted: humans; Iuliucci J D, et al., 2001; cited from earlier work.
For data set [2], the target named is FKBP12 polypeptide with the F36V mutation (Homo sapiens, UniProt P62942, F37V). The note with it: cited from earlier work.
The subject of data set [3] is primary T cells from Donor #8. In words: Example 2: induction of apoptosis in Donor #8 T cells comprising chimeric caspase-9 proteins with or without a CAR, in response to AP1903. Format: cell-based, human. The note with it: Day 1 post-AP1903, Donor #8 primary T cells, FIG. 6. As for the experimental part: T cells derived from donor #8 comprising various different chimeric caspase 9 proteins, some of which further comprise a CAR were prepared as described in part 1A above and were assayed for expression of chimeric caspase-9 and for induced apoptosis in response to the dimeric ligand AP1903.
For each assay, about 1,000,000 cells containing a particular chimeric caspase 9 protein were incubated with or without 10 nM AP1903 for 3 or 4 days. On days 1, 2 and 3 post-AP1903 (FIGS. 6, 7, and 8, respectively), the cells were measured by flow cytometry to determine the percentage of live cells that are GFP positive (+) (GFP is a marker for the chimeric caspase 9 protein). Thus, it can be extrapolated that the greater the % of live GFP+ cells, the lower the apoptotic activity of the respective chimeric caspase 9 protein in this assay.
In FIGS. 6-9, for each different chimeric caspase-9 protein, expressed with or without a CAR, there are two adjacent bars. The left-side bar is for the cells incubated without AP1903, and the right-side bar is for the corresponding cells incubated with AP1903. […] This observation is consistent with the application of the D330M-D379E construct as a fast-acting “safety switch” for CAR-T therapies.

The test system of a further data set is primary T cells. Nature of the data set: Induction of apoptosis in T cells containing chimeric caspase 9 proteins: % live GFP positive cells by flow cytometry, with or without AP1903. Format: cell-based, human. Conditions: for % GFP, AP1903 / % GFP, 0 mM AP1903: % GFP positive cells, 4 days after AP1903. As for the experimental part: Primary T cells were prepared from each of four different human blood donors (“Donor 1”, “Donor 2”, “Donor 3” and “Donor 8”) as follows.
Previously-frozen primary T cells were thawed and activated with ImmunoCult Human CD3/CD28 T cell activator (StemCell, Cat #10971). 48 hours later, a lentiviral vector which contains a polynucleotide encoding a chimeric caspase 9 protein as described above was added to the activated primary T cells for transduction. Different lentiviral vectors were added to different samples of the primary T cells to test the activity of the different chimeric caspase 9 proteins. The respective lentiviral vectors were provided to the T cells in filtered supernatant from the HEK293T cells. T cells transduced with a polynucleotide encoding a chimeric caspase 9 protein subsequently expressed the respective chimeric caspase 9 protein.
T cells containing different chimeric caspase 9 proteins prepared as described in part A above were assayed for apoptosis in response to the dimeric ligand AP1903.
[…] On the 3rd or 4th day, the cells were measured by flow cytometry to determine the percentage of live cells that are GFP positive (+). (GFP is a marker for the chimeric caspase 9 protein.) Thus, it can be extrapolated that the greater the % of live GFP+ cells, the lower the apoptotic activity of the respective chimeric caspase 9 protein in this assay.

Where [4] appears, read: Table 3, Donor # 1, primary T cells.
Setting [5] is: Table 4, Donor # 2, primary T cells.
The mark [6] stands for this setting: Table 5, Donor # 1, primary T cells.
[7] abbreviates: Table 6, Donor # 1, primary T cells.
Where [8] appears, read: Table 7, Donor # 3, primary T cells.

FKBP12 polypeptide with the F36V mutation, sequence (P62942 whole entry F37V): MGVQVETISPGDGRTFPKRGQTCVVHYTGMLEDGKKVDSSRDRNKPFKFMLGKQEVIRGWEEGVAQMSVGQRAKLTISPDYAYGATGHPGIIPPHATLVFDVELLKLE

As for `CC[C@H](C(=O)N1CCCC[C@H]1C(=O)O[C@H](CCc1ccc(OC)c(OC)c1)c1cccc(OCC(=O)NCCNC(=O)COc2cccc([C@@H](CCc3ccc(OC)c(OC)c3)OC(=O)[C@@H]3CCCCN3C(=O)[C@@H](CC)c3cc(OC)c(OC)c(OC)c3)c2)c1)c1cc(OC)c(OC)c(OC)c1` (relative stereo) [AP1903, 2-Piperidinecarboxylic acid, 1-[(2S)-1-oxo-2-(3,4,5-trimethoxyphenyl)butyl]-, 1,2 ethanediylbis[imino(2-oxo-2,1-ethanediyl)oxy-3,1-phenylene[(1R)-3-(3,-4-dimethoxyphenyl)propylidene]]ester, [2S [1(R*),2R*[S*[S*[1(R*),2R*]]]]]-(9Cl)], the well-tolerated dose result in data set [1] is “at least 1 mg/kg”. Also, in data set [2], the “affinity for FKBP12 with the F36V mutation compared with wild-type FKBP12” value was “much greater affinity” and the “affinity of FKBP12 containing the F36V mutation for AP1903” value was “high affinity”.

Take “D330M-D379E: chimeric caspase 9 protein (SEQ ID NO: 6): FKBP12 F36V dimerization domain, linker, caspase-9 polypeptide without CARD, D330M-D379E double mutation”: in data set [3], the “speed of induced apoptosis relative to the N405Q construct” value was “approximately 3 fold”. For the same molecule, the “% GFP, AP1903” value in the data set on primary T cells (setting [4]) is reported as 7%; in the data set with primary T cells (setting [5]), 2%; in the data set on primary T cells (setting [6]), 6.95%; in the data set on primary T cells (setting [7]) it was 5.04%; in the data set with primary T cells (setting [8]) it was 7%. Also, the “% GFP, 0 mM AP1903” value in the data set with primary T cells (setting [4]) is recorded as 72%; in the data set on primary T cells (setting [5]), 35%; with primary T cells (setting [6]), 72.3%; with primary T cells (setting [7]) it was 53.4%; with primary T cells (setting [8]) it was 71%. Also, in the data set on primary T cells (assessment of Tables 3-7), the “activity profile (high % GFP+ without AP1903, large difference with AP1903)” value is “attractive activity profiles”.

The values are drawn from patent US12104188B2, “Modified caspase-9 polypeptides and methods of use thereof” (Allogene Therapeutics, Inc., priority 2017, dated 2024).
